Assay results published in patent publication US12037346B2, “Amino-substituted heteroaryls for treating cancers with EGFR mutations” (Nuvalent, Inc., priority 2021, dated 2024).

Key:
Assay type in all cases: cell-based
[1] = test system: A431 cells (amplification of the wild-type EGFR gene), phospho-ERK Thr202/Tyr204; assay: Cellular phosphorylation assay, pERK (phospho-ERK Thr202/Tyr204 AlphaLISA) in A431; settings: Homo sapiens, A-431, compound incubated for 5 hours
Protocol: (§1) Besides Ba/F3s, two commercially available cell lines were also used. NCI-H1781 is a HER2 exon20 insertion cell line bearing HER2-A775_G776insV-G776C. A431 bears amplification of the wild-type EGFR gene.
(§2) Ba/F3 cells were plated at 50,000 cells/well (40 μL), or NCI-H1781 cells or A431 cells were plated at 12,500 cells/well (40 μL), in a 384-well plate for 1 day. Test compounds (40 nL) were then added in a 3-fold dilution series using the TECAN EV0200 liquid handler and incubated for 5 hours. Only for pEGFR analysis in A431, the cells were briefly stimulated with EGF (30 ng/mL) for 15 minutes. Media were removed using Apricot Designs. Phosphoproteins were analyzed using the phospho-EGFR Tyr1068 AlphaLISA kit (“pEGFR”; PerkinElmer #ALSU-PEGFR-B10K;) phospho-ERK Thr202/Tyr204 AlphaLISA kit (“pERK”; PerkinElmer #ALSU-PERK-A10K) or the phospho-ErbB2 Tyr1221/1222 AlphaLISA kit (“pHER2”; PerkinElmer #ALSU-PEB2-A10K;) according to the manufacturer's instructions. Briefly, cells were lysed with lysis buffer (10 μL) containing protease-inhibitor and phosphatase-inhibitor cocktails. The lysates were transferred into a new optical plate, incubated with the acceptor mix (5 μL) for 1.5-2 hours at room temperature in darkness, and then mixed with the donor mix (5 μL) overnight in darkness. Fluorescence was measured on a plate reader using the appropriate AlphaLISA settings. Half-maximal inhibitory concentration (IC50) was calculated from percent inhibition and inhibitor concentration using four-parameter logistic regression. […]

[2] = target: Ba/F3 HER2-YVMA cells (HER2-A775_G776insYVMA) (Homo sapiens, UniProt P04626, DUP772-775, cells depend on it); assay: Cell proliferation assay (CellTiter-Glo), Ba/F3 HER2-YVMA; settings: read-out: Ba/F3 HER2-YVMA cell proliferation IC50
Protocol: The gene encoding HER2-A775_G776insYVMA (“HER2-YVMA”) was synthesized at GeneRay, cloned into the retroviral construct pMSCV-puro (Biovector), and packaged into retroviral particles. The virus was used to infect Ba/F3 cells (RIKEN) at multiplicity of infection=1 or 10 for 1 day. Infected cells were rescued in media (RPMI-1640 with 10% fetal bovine serum and 1% streptomycin and penicillin) supplemented with mouse IL-3 (10 ng/mL) for 2 days, and stable cell lines were selected by IL-3 withdrawal and puromycin (0.8 μg/mL) for 7 days. Monoclones were selected by single-cell dilution in IL-3-free medium containing puromycin ([…]). Transformation of desired genes was confirmed by Sanger sequencing and western blot using the following antibody: HER2 (CST #2242).
(§3) Ba/F3 cells were plated at 1,000 cells/well (40 μL), or NCI-H1781 or A431 cells were plated at 2,000 cells/well (40 μL), in a 384-well plate for 1 day. Test compounds (40 nL) were then added in a 3-fold dilution series using the TECAN EV0200 liquid handler and incubated for 48 hours (“2 days”), 72 hours (“3 days”), or 48 hours followed by renewal of compound solutions and further incubation for 72 hours (“2 days/3 days”). The 72-hour assay was necessary for NCI-H1781 cells, which are slow-growing, and the resupply of fresh compounds on day 3 obviated the potential confounding effects arising from compound degradation in cell media over 72 hours. Plates were equilibrated at room temperature for 15 minutes followed by addition of 40 μL CellTiter-Glo reagent (Promega). Luminescence was measured on a plate reader. Half-maximal inhibitory concentration (IC50) was calculated from percent inhibition and inhibitor concentration using four-parameter logistic regression. […] In these cases, the regression curve was drawn only for the first inflexion to accurately measure on-target growth inhibitory effect.
(§4) Ba/F3, NCI-H1781, and A431 proliferation is driven by the oncogenes in the same way that cancer cell proliferation in humans is driven by the expression of equivalent oncogenes.

[3] = target: T1, wild-type EGFR (A431 cells) (Homo sapiens, UniProt P00533); assay: Cellular phosphorylation assay, pEGFR (phospho-EGFR Tyr1068 AlphaLISA) in A431; settings: compound incubated for 5 hours, EGF (30 ng/mL) for 15 minutes
T1 construct: A431 bears amplification of the wild-type EGFR gene; endogenous in cells; host or cells: A431
Protocol: as §1, §2

[4] = test system: NCI-H1781 cells (HER2-A775_G776insV-G776C); assay: Cell proliferation assay (CellTiter-Glo), NCI-H1781; settings: first inflexion of biphasic curve
Protocol: as §1, §3, §4

Ba/F3 HER2-YVMA cells (HER2-A775_G776insYVMA), sequence (P04626 with tags, fused parts or gaps DUP772-775): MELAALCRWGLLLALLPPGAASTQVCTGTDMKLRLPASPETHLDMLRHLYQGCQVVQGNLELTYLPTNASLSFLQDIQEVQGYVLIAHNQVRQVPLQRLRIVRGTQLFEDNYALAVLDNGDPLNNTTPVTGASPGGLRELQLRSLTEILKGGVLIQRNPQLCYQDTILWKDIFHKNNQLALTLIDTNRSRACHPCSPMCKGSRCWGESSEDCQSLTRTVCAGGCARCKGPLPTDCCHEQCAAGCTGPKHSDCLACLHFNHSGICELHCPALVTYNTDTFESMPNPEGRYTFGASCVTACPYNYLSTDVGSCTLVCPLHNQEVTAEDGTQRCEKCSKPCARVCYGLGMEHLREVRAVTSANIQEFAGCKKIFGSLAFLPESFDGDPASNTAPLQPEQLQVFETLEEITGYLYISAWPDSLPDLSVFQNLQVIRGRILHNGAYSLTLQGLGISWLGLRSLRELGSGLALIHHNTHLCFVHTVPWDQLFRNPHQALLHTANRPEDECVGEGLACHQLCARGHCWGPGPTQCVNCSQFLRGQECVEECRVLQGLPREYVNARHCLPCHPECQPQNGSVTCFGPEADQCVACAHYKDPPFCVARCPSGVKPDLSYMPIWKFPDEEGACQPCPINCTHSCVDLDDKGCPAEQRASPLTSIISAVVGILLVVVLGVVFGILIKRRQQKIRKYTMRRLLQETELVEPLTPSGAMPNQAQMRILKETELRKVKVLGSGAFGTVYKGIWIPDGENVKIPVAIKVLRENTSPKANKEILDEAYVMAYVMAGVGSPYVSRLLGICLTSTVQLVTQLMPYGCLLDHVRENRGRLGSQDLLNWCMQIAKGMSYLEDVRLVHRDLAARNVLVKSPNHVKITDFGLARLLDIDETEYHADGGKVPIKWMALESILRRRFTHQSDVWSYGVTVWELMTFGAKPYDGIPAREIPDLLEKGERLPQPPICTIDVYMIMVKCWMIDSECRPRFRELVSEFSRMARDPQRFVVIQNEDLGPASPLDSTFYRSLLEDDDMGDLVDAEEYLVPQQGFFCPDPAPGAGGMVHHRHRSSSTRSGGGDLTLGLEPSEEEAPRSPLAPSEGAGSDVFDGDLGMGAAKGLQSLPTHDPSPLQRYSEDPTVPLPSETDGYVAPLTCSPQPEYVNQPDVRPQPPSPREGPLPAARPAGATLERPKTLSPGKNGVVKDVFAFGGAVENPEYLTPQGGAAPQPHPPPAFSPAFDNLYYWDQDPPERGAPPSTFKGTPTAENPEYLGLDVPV
T1 sequence (P00533 25-1210): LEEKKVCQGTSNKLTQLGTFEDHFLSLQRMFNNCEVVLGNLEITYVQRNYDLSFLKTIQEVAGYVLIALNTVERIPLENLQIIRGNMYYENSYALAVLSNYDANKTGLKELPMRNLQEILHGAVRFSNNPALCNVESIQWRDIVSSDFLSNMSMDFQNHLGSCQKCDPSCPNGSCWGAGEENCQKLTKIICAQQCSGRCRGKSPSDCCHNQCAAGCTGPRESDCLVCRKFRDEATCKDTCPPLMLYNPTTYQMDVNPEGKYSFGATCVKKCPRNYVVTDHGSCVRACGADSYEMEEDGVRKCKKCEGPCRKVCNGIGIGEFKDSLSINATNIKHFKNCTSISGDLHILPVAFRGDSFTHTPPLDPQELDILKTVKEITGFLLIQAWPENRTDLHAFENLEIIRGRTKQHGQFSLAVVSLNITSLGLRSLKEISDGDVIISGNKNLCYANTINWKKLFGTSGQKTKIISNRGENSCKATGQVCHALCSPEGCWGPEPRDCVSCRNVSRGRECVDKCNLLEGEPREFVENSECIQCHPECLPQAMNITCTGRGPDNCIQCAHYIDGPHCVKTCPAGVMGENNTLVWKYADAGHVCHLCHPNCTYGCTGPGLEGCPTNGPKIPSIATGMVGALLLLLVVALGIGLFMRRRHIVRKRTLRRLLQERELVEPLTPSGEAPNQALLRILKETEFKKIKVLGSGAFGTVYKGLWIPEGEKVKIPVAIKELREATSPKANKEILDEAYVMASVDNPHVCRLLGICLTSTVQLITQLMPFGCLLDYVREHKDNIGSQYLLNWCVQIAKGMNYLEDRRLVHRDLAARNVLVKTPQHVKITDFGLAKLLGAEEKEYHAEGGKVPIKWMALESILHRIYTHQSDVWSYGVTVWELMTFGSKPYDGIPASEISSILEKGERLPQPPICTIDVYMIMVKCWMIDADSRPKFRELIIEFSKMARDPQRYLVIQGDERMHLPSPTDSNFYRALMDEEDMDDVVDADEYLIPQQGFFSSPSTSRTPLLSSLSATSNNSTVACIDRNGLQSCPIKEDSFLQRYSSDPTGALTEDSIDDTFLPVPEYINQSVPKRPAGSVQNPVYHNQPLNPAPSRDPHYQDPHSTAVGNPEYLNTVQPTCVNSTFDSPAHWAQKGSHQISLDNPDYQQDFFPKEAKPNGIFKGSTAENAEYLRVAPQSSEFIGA

Compound | IC50 [1] [µM] | GI50 [2] [µM] | IC50 [3] [µM] | IC50 [4] [µM]
C=CC(=O)N1CC=C(c2ccc3ncnc(Nc4ccc(Oc5cc(C)n6ncnc6c5)c(C)c4)c3n2)CC1 [Example 17] | ≥ 1 | < 0.1 | ≥ 1 | < 0.1
C=CC(=O)N1CCN(c2ncc3ncnc(Nc4ccc(Oc5ccn6ncnc6c5)c(C)c4F)c3n2)[C@@H](C)C1 [Example 43] | 0.1 to 0.5 | < 0.1 | 0.1 to 0.5 | < 0.1
C=CC(=O)N1CC=C(c2ncc3ncnc(Nc4cc(C)c(Oc5ccn6ncnc6c5)cc4F)c3n2)CC1 [Example 38] | – | 0.1 to 0.5 | ≥ 1 | 0.1 to 0.5
C=CC(=O)N1CCN(c2ncc3ncnc(Nc4ccc(Oc5ccn6ncnc6c5)c(C)c4F)c3n2)[C@H](C)[C@@H]1C (relative stereo) [Example 40] | < 0.1 | < 0.1 | < 0.1 | < 0.1
C=CC(=O)N1C[C@@H]2CC[C@H]1CN2c1ncc2ncnc(Nc3ccc(Oc4ccn5ncnc5c4)c(C)c3F)c2n1 [Example 41] | < 0.1 | < 0.1 | < 0.1 | < 0.1
C=CC(=O)N1CCN(c2ncc3ncnc(Nc4cc(C)c(Oc5ccn6ncnc6c5)cc4F)c3n2)C[C@@H]1C [Example 36] | ≥ 1 | 0.1 to 0.5 | ≥ 1 | 0.1 to 0.5
C=CC(=O)N1CCN(c2ccc3ncnc(Nc4ccc(Oc5ccn6ncnc6c5)c(C)c4)c3n2)[C@@H](C)C1 [Example 22] | 0.5 to 1 | < 0.1 | ≥ 1 | < 0.1
C=C(F)C(=O)N1CC=C(c2ccc3ncnc(Nc4ccc(Oc5ccn6ncnc6c5)c(C)c4)c3n2)CC1 [Example 31] | ≥ 1 | ≥ 1 | ≥ 1 | ≥ 1
C=CC(=O)N1CCC(c2ccc3ncnc(Nc4ccc(Oc5ccn6ncnc6c5)c(C)c4)c3n2)C(C)C1 (centres unmarked) [Example 28] | ≥ 1 | 0.1 to 0.5 | ≥ 1 | –
C=CC(=O)N1CC=C(c2ncc3ncnc(Nc4ccc(Oc5ccn6ncnc6c5)c(C)c4F)c3n2)CC1 [Example 37] | ≥ 1 | < 0.1 | 0.5 to 1 | < 0.1
C=CC(=O)N1CC=C(c2ccc3ncnc(Nc4cc(C)c(Oc5ccn6ncnc6c5)cc4F)c3n2)CC1 [Example 11] | – | < 0.1 | ≥ 1 | 0.1 to 0.5
C=CC(=O)N1CC=C(c2ncc3ncnc(Nc4ccc(Oc5ccn6ncnc6c5)c(C)c4F)c3n2)C[C@H]1C [Example 80] | 0.5 to 1 | < 0.1 | ≥ 1 | –
C=CC(=O)N1CCN(c2ncc3ncnc(Nc4cc(C)c(Oc5ccn6ncnc6c5)cc4F)c3n2)[C@H](C)C1 [Example 34] | – | 0.1 to 0.5 | ≥ 1 | 0.1 to 0.5
C=CC(=O)N1CCN(c2ncc3ncnc(Nc4ccc(Oc5ccc6c(c5)ncn6C)c(C)c4F)c3n2)CC1 [Example 74] | < 0.1 | < 0.1 | 0.1 to 0.5 | –
C=CC(=O)N1CC(c2ccc3ncnc(Nc4ccc(Oc5ccn6ncnc6c5)c(C)c4)c3n2)C1 [Example 33] | ≥ 1 | 0.1 to 0.5 | ≥ 1 | –
C=CC(=O)N1CCN(c2ncc3ncnc(Nc4ccc(Oc5ccn6ncnc6c5)c(C)c4F)c3n2)C[C@H]1C [Example 32] | 0.5 to 1 | < 0.1 | – | < 0.1
Cc1c(Oc2ccn3ncnc3c2)ccc(Nc2ncnc3cnc(C4=C[C@@H](C)N(C(=O)/C=C/CN(C)C)CC4)nc23)c1F [Example 83] | 0.1 to 0.5 | < 0.1 | 0.1 to 0.5 | –
C=CC(=O)N1CC=C(c2ncc3ncnc(Nc4ccc(Oc5ccn6ncnc6c5)c(C)c4F)c3n2)C[C@@H]1C [Example 42] | – | < 0.1 | ≥ 1 | < 0.1

Compound | IC50 [1] [µM] | GI50 [2] [µM] | IC50 [3] [µM] | IC50 [4] [µM]
C=CC(=O)N1CCN(c2ccc3ncnc(Nc4ccc(Oc5ccn6c(C)cnc6c5)c(C)c4F)c3c2F)C[C@H]1C [Example 75] | 0.1 to 0.5 | < 0.1 | 0.5 to 1 | –
C=CC(=O)N1CCC=C(c2ccc3ncnc(Nc4ccc(Oc5ccn6ncnc6c5)c(C)c4)c3n2)C1 [Example 27] | ≥ 1 | 0.1 to 0.5 | ≥ 1 | –
C=CC(=O)N1CC=C(c2ccc3ncnc(Nc4ccc(Oc5ccc6ccn(C)c6c5)c(C)c4)c3n2)CC1 [Example 71] | 0.1 to 0.5 | 0.1 to 0.5 | 0.1 to 0.5 | –
C=CC(=O)N1CCC(c2ncc3ncnc(Nc4cc(C)c(Oc5ccn6ncnc6c5)cc4F)c3n2)=C[C@@H]1C [Example 58] | ≥ 1 | < 0.1 | ≥ 1 | –
C=CC(=O)N1CCN(c2ncc3ncnc(Nc4ccc(Oc5ccn6ncnc6c5)c(Cl)c4F)c3n2)C[C@H]1C [Example 82] | 0.1 to 0.5 | < 0.1 | < 0.1 | –
C=CC(=O)N1CCN(c2ccc3ncnc(Nc4ccc(Oc5ccn6ncnc6c5)c(C)c4)c3c2F)CC1 [Example 29] | – | < 0.1 | ≥ 1 | < 0.1
C=CC(=O)N1CCN(c2ncc3ncnc(Nc4ccc(Oc5ccn6ncnc6c5)c(C)c4F)c3n2)C[C@H]1CF [Example 81] | 0.1 to 0.5 | < 0.1 | 0.1 to 0.5 | –
C=CC(=O)N1CC=C(c2ccc3ncnc(Nc4ccc(Oc5ccn6ncnc6c5)c(C)c4)c3n2)C[C@@H]1C [Example 85] | ≥ 1 | < 0.1 | ≥ 1 | –
C=CC(=O)N1CCN(c2ncc3ncnc(Nc4ccc(Oc5ccn6ncnc6c5)c(C)c4F)c3n2)[C@H](C)[C@H]1C [Example 100] | 0.1 to 0.5 | < 0.1 | ≥ 1 | –
C=CC(=O)N1CCN(c2ncc3ncnc(Nc4ccc(Oc5ccc6c(c5)ncn6C)c(C)c4F)c3c2F)C[C@H]1C [Example 84] | 0.1 to 0.5 | < 0.1 | 0.5 to 1 | –
C=CC(=O)N1CCN(c2ncc3ncnc(Nc4ccc(Oc5ccn6ncnc6n5)c(C)c4F)c3n2)C[C@H]1C [Example 65] | ≥ 1 | 0.1 to 0.5 | ≥ 1 | –
C=CC(=O)N1CCN(c2ncc3ncnc(Nc4ccc(Oc5cc6ncnn6cn5)c(C)c4F)c3n2)C[C@H]1C [Example 73] | 0.1 to 0.5 | < 0.1 | 0.1 to 0.5 | –
C=CC(=O)N1C[C@@H](C)N(c2ncc3ncnc(Nc4ccc(Oc5ccn6ncnc6c5)c(C)c4F)c3n2)C[C@H]1C [Example 44] | – | 0.1 to 0.5 | ≥ 1 | 0.1 to 0.5
C=CC(=O)N1CC=C(c2ccc3ncnc(Nc4ccc(Oc5ccc6ocnc6c5)c(C)c4)c3n2)CC1 [Example 10] | 0.1 to 0.5 | < 0.1 | < 0.1 | –
C=CC(=O)N1CC=C(c2ccc3ncnc(Nc4ccc(Oc5ccn6ncnc6c5)c(C)c4)c3n2)C[C@H]1C [Example 86] | 0.1 to 0.5 | < 0.1 | 0.1 to 0.5 | –
C=CC(=O)N1CC=C(c2ccc3ncnc(Nc4ccc(Oc5ccn6ccnc6c5)c(C)c4)c3n2)CC1 [Example 70] | 0.1 to 0.5 | < 0.1 | 0.1 to 0.5 | –
Cc1c(Oc2ccn3ncnc3c2)ccc(Nc2ncnc3cnc(C4=CCN(C(=O)/C=C/CN(C)C)CC4)nc23)c1F [Example 69] | 0.1 to 0.5 | < 0.1 | 0.5 to 1 | –
